Literature values as cited in patent US12576027B2, “Diclofenac topical formulation with a high absorption rate” (IBSA INSTITUT BIOCHIMIQUE SA, priority 2021, dated 2026).

Conditions: orally administered

## O=C(O)Cc1ccccc1Nc1c(Cl)cccc1Cl [diclofenac, 2-[(2,6-dichlorophenyl)-amino]benzeneacetic acid]
  absorption: almost complete
  time to high hematic peaks from administration: ≤ 2 h
